# Experimental data taken from ChEMBL document CHEMBL3352819, “Structure-based optimization and biological evaluation of trisubstituted pyrazole as a core structure of potent ROS1 kinase inhibitors” (Bioorg Med Chem, 2014).
# Tests used:
# [1] = tested on: Receptor-type tyrosine-protein kinase FLT3 (Homo sapiens), P36888 [N841I]; test: Inhibition of FLT3 N841I mutant (unknown origin) assessed as residual activity at 10 uM relative to control
# [2] = molecular target: Serine/threonine-protein kinase B-raf (Homo sapiens) (UniProt P15056); test: Inhibition of BRAF (unknown origin) assessed as residual activity at 10 uM relative to control
# [3] = molecular target: Proto-oncogene tyrosine-protein kinase ROS (Homo sapiens, UniProt P08922); test: Inhibition of ROS1 (unknown origin) assessed as remaining activity
# [4] = molecular target: Phosphatidylinositol 4,5-bisphosphate 3-kinase catalytic subunit delta isoform (Homo sapiens) (UniProt O00329); test: Inhibition of PIK3CD (unknown origin) assessed as residual activity at 10 uM relative to control
# [5] = molecular target: Leukocyte tyrosine kinase receptor (Homo sapiens) (UniProt P29376); test: Inhibition of LTK (unknown origin) assessed as residual activity at 10 uM relative to control
# [6] = molecular target: Tyrosine-protein kinase JAK2 (Homo sapiens) (UniProt O60674); test: Inhibition of JAK2 (unknown origin) assessed as residual activity at 10 uM relative to control
# [7] = molecular target: Hepatocyte growth factor receptor (Homo sapiens) (UniProt P08581); test: Inhibition of c-MET (unknown origin) assessed as residual activity at 20 uM relative to control
# [8] = molecular target: Non-receptor tyrosine-protein kinase TNK1 (Homo sapiens) (UniProt Q13470); test: Inhibition of TNK1 (unknown origin) assessed as residual activity at 10 uM relative to control
# Homo sapiens = species: Homo sapiens; test: Inhibition of ULK (unknown origin) assessed as residual activity at 10 uM relative to control
# [9] = tested on: Serine/threonine-protein kinase B-raf (Homo sapiens), P15056 [V600E]; test: Inhibition of BRAF V600E mutant (unknown origin) assessed as residual activity at 10 uM relative to control
# [10] = molecular target: Serine/threonine-protein kinase PLK4 (Homo sapiens) (UniProt O00444); test: Inhibition of PLK4 (unknown origin) assessed as residual activity at 10 uM relative to control
# [11] = molecular target: Non-receptor tyrosine-protein kinase TYK2 (Homo sapiens) (UniProt P29597); test: Inhibition of TYK2 JH1 domain catalytic (unknown origin) assessed as residual activity at 10 uM relative to control
# [12] = molecular target: Phosphatidylinositol 4,5-bisphosphate 3-kinase catalytic subunit beta isoform (Homo sapiens) (UniProt P42338); test: Inhibition of PIK3CB (unknown origin) assessed as residual activity at 10 uM relative to control
# [13] = molecular target: AP2-associated protein kinase 1 (Homo sapiens) (UniProt Q2M2I8); test: Inhibition of AAK1 (unknown origin) assessed as residual activity at 10 uM relative to control
# [14] = molecular target: Phosphatidylinositol 4-phosphate 3-kinase C2 domain-containing subunit beta (Homo sapiens) (UniProt O00750); test: Inhibition of PIK3C2B (unknown origin) assessed as residual activity at 10 uM relative to control
# [15] = molecular target: Mast/stem cell growth factor receptor Kit (Homo sapiens) (UniProt P10721); test: Inhibition of KIT (unknown origin) assessed as residual activity at 10 uM relative to control
# [16] = molecular target: Tyrosine-protein kinase HCK (Homo sapiens) (UniProt P08631); test: Inhibition of HCK (unknown origin) assessed as residual activity at 10 uM relative to control
# [17] = molecular target: Proto-oncogene tyrosine-protein kinase Src (Homo sapiens) (UniProt P12931); test: Inhibition of SRC (unknown origin) assessed as residual activity at 10 uM relative to control
# [18] = molecular target: BMP-2-inducible protein kinase (Homo sapiens) (UniProt Q9NSY1); test: Inhibition of BIKE (unknown origin) assessed as residual activity at 10 uM relative to control
# [19] = molecular target: Tyrosine-protein kinase TXK (Homo sapiens) (UniProt P42681); test: Inhibition of TXK (unknown origin) assessed as residual activity at 10 uM relative to control
# [20] = tested on: Phosphatidylinositol 4,5-bisphosphate 3-kinase catalytic subunit alpha isoform (Homo sapiens), P42336 [E542K]; test: Inhibition of PIK3CA E542K mutant (unknown origin) assessed as residual activity at 10 uM relative to control
# [21] = molecular target: Mitogen-activated protein kinase kinase kinase 20 (Homo sapiens) (UniProt Q9NYL2); test: Inhibition of ZAK (unknown origin) assessed as residual activity at 10 uM relative to control
# [22] = molecular target: Tyrosine-protein kinase Blk (Homo sapiens) (UniProt P51451); test: Inhibition of BLK (unknown origin) assessed as residual activity at 10 uM relative to control
# [23] = molecular target: Phosphatidylinositol 4,5-bisphosphate 3-kinase catalytic subunit alpha isoform (Homo sapiens) (UniProt P42336); test: Inhibition of PIK3CA (unknown origin) assessed as residual activity at 10 uM relative to control
# [24] = molecular target: ALK tyrosine kinase receptor (Homo sapiens) (UniProt Q9UM73); test: Inhibition of ALK (unknown origin) assessed as residual activity at 20 uM relative to control
# [25] = molecular target: Serine/threonine-protein kinase RIO2 (Homo sapiens) (UniProt Q9BVS4); test: Inhibition of RIOK2 (unknown origin) assessed as residual activity at 10 uM relative to control
# [26] = molecular target: Receptor-type tyrosine-protein kinase FLT3 (Homo sapiens) (UniProt P36888); test: Inhibition of FLT3 (unknown origin) assessed as residual activity at 10 uM relative to control
# [27] = molecular target: Ephrin type-B receptor 6 (Homo sapiens) (UniProt O15197); test: Inhibition of EPHB6 (unknown origin) assessed as residual activity at 10 uM relative to control
# [28] = molecular target: Aurora kinase A (Homo sapiens) (UniProt O14965); test: Inhibition of aurora A kinase (unknown origin) assessed as residual activity at 10 uM relative to control
# [29] = molecular target: Atypical kinase COQ8A, mitochondrial (Homo sapiens) (UniProt Q8NI60); test: Inhibition of ADCK3 (unknown origin) assessed as residual activity at 10 uM relative to control
# Sequence of Proto-oncogene tyrosine-protein kinase ROS (P08922 whole entry, canonical isoform): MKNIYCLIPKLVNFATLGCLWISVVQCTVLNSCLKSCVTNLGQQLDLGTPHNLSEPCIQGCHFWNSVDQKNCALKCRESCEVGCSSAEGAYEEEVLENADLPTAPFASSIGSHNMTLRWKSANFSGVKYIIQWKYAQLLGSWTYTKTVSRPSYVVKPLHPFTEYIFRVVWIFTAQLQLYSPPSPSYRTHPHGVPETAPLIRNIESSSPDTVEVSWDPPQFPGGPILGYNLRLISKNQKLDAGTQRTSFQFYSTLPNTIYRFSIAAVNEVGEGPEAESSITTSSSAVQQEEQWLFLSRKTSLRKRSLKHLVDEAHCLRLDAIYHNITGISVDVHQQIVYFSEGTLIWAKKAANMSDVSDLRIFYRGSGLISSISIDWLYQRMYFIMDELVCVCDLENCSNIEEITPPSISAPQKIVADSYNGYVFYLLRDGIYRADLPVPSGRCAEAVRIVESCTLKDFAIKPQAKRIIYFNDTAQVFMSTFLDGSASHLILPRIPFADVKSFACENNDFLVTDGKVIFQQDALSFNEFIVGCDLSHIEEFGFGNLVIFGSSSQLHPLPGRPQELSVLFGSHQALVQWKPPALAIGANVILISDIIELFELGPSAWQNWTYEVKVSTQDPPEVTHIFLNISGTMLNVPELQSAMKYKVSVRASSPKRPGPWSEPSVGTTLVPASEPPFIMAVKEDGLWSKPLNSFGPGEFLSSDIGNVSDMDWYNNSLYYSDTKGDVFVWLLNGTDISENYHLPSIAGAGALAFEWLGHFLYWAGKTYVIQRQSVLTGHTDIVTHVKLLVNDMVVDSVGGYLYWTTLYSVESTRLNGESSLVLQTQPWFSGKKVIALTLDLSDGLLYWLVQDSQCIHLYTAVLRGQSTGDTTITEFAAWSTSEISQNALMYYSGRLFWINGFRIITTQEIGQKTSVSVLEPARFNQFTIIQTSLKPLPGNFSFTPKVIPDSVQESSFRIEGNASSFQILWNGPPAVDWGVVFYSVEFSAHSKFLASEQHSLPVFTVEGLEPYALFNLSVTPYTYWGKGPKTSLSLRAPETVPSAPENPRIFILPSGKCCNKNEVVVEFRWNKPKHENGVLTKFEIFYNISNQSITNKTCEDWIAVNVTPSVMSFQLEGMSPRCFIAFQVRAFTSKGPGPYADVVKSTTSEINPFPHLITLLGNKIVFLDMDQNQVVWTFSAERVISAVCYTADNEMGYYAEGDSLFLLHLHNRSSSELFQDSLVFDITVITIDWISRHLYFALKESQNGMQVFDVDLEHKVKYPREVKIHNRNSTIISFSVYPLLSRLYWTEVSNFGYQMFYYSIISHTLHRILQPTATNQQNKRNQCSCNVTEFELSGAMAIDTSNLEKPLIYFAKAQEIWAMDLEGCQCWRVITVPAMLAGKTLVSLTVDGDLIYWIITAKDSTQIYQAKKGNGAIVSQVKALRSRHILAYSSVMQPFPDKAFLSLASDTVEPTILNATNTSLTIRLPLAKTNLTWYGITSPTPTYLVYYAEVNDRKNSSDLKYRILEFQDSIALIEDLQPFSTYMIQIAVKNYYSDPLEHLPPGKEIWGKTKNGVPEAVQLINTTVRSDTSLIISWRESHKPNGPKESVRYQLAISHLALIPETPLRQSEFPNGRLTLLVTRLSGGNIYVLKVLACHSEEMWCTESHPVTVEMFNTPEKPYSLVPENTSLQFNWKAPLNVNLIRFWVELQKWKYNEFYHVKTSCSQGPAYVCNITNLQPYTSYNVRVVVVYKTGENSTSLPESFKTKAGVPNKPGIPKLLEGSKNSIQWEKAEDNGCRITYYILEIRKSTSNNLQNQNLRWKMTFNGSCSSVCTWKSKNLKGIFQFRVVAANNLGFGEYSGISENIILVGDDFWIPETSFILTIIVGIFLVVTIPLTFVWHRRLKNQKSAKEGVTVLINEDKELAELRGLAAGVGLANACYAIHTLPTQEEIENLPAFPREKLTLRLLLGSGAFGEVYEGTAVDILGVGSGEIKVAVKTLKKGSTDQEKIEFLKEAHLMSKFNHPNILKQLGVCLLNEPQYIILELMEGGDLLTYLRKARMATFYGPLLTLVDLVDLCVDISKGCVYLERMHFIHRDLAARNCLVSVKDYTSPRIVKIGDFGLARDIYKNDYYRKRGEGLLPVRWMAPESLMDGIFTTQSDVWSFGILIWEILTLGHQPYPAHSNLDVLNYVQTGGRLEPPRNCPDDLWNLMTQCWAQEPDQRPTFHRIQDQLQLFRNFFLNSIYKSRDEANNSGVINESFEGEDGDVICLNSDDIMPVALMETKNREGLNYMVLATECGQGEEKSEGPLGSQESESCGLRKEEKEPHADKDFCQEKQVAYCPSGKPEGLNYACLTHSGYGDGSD
# Sequence of Serine/threonine-protein kinase B-raf (Homo sapiens) (P15056 whole entry): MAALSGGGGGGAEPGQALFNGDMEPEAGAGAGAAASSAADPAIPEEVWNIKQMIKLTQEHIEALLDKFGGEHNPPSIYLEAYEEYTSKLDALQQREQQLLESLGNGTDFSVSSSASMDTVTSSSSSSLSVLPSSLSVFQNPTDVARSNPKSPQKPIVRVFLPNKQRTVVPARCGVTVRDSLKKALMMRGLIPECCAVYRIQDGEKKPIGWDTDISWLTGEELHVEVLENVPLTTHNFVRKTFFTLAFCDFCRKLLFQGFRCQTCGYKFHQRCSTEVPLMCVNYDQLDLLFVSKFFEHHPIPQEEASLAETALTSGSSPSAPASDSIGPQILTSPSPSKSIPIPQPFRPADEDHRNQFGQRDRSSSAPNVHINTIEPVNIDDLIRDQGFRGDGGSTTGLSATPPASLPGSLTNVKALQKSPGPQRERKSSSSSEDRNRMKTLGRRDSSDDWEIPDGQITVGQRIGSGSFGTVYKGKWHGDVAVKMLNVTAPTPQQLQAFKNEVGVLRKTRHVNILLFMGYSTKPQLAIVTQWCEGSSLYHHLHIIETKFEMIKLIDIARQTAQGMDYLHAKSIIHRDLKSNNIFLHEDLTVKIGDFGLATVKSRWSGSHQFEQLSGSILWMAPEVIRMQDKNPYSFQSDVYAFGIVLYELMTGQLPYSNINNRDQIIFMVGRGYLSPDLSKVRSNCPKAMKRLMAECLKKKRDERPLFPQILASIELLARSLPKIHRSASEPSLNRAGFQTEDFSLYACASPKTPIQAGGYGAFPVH
# Sequence of Tyrosine-protein kinase Blk (Homo sapiens) (P51451 2-505 limits assumed): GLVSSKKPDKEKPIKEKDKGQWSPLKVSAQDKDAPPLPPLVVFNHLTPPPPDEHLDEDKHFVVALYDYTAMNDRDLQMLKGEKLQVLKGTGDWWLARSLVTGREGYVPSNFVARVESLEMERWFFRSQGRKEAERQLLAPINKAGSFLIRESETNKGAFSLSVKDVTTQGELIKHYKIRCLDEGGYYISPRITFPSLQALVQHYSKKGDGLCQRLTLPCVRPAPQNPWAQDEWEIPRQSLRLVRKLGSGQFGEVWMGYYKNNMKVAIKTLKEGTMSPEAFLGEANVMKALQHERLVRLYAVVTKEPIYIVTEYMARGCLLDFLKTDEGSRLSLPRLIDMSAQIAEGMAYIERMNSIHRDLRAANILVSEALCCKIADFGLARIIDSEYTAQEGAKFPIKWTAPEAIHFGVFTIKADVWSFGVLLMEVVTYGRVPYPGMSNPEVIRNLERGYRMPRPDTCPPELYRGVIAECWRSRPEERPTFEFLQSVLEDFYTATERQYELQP
# Sequence of Serine/threonine-protein kinase PLK4 (Homo sapiens) (O00444 whole entry, the tested form may be a part): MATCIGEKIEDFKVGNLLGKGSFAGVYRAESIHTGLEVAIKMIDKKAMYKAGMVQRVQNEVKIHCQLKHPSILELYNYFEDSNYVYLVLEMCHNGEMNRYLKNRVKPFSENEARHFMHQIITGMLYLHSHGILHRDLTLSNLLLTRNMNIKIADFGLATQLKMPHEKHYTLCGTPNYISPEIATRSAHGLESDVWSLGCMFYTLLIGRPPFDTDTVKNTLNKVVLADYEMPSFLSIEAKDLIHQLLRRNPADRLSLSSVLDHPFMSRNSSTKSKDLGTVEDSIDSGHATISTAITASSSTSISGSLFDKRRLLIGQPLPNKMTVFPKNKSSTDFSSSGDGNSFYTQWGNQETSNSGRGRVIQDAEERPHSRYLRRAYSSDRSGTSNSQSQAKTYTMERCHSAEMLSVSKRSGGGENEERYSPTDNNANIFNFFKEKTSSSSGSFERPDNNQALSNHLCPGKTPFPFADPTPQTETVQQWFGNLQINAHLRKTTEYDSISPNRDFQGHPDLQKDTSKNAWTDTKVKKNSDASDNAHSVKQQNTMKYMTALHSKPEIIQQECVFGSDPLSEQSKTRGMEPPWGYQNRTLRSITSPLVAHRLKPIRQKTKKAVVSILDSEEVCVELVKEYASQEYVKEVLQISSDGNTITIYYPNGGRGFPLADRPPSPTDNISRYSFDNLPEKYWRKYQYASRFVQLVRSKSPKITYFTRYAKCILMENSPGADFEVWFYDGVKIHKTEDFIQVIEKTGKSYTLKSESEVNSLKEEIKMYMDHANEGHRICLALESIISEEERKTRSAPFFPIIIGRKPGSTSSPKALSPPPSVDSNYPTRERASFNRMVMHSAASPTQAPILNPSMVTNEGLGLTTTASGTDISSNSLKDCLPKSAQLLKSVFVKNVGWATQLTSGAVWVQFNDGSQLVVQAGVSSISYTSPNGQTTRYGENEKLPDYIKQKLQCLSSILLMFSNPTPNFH
# Sequence of Proto-oncogene tyrosine-protein kinase Src (Homo sapiens) (P12931 2-536 limits assumed): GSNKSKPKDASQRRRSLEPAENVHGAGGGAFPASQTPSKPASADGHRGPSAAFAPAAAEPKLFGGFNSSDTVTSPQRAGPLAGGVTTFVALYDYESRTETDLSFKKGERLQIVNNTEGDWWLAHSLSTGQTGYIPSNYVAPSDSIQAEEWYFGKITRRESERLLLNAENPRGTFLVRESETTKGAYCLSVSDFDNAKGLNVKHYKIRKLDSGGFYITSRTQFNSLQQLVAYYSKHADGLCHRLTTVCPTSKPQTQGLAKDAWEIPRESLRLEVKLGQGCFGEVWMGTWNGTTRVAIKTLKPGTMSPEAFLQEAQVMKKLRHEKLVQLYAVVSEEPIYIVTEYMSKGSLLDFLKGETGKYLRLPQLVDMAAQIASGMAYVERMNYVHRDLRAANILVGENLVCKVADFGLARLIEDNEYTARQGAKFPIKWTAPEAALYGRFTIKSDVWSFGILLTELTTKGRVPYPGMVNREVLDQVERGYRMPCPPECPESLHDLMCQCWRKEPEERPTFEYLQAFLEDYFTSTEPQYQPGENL
compound,measurement,setting,value
Cc1cc(O)cc(-c2nn(C)cc2-c2cc(N3CCOCC3)nc(-c3cccnc3)n2)c1,Activity,[1],3.3%
same,Activity,[2],30%
same,IC50,[3],13.6 nM
same,Activity,[4],4.4%
same,Activity,[5],17%
same,Activity,[6],3%
same,Activity,[7],51%
same,Activity,[8],9.2%
same,Activity,Homo sapiens,71%
same,Activity,[9],18%
same,Activity,[10],6.8%
same,Activity,[11],2.6%
same,Activity,[12],7.2%
same,Activity,[13],18%
same,Activity,[14],4%
same,Activity,[15],20%
same,Activity,[16],28%
same,Activity,[17],25%
same,Activity,[18],11%
same,Activity,[19],9.6%
same,Activity,[20],14%
same,Activity,[21],92%
same,Activity,[22],20%
same,Activity,[23],13%
same,Activity,[24],31%
same,Activity,[25],10%
same,Activity,[26],3%
same,Activity,[27],4.2%
same,Activity,[28],31%
same,Activity,[29],15%
Cc1cc(O)cc(-c2c(-c3cc(NC[C@H](C)O)nc(-c4cccnc4)n3)cnn2C)c1,IC50,[3],139 nM
Cc1cc(O)cc(-c2c(-c3cc(N4CC(O)C4)nc(-c4cccnc4)n3)cnn2C)c1,IC50,[3],56.6 nM
COc1cc(C)cc(-c2nn(C)cc2-c2cc(N3CC(O)C3)nc(-c3cccnc3)n2)c1,IC50,[3],108 nM
Cc1cc(O)cc(-c2nn(C)cc2-c2cc(NC[C@H](C)O)nc(-c3cccnc3)n2)c1,IC50,[3],105 nM
COc1cc(C)cc(-c2nn(C)cc2-c2cc(NCCCCO)nc(-c3cccnc3)n2)c1,IC50,[3],63.8 nM
Cc1cc(O)cc(-c2c(-c3cc(N4CCOCC4)nc(-c4cccnc4)n3)cnn2C)c1,IC50,[3],91.5 nM
COc1cc(C)cc(-c2c(-c3cc(N4CCOCC4)nc(-c4cccnc4)n3)cnn2C)c1,IC50,[3],104 nM
COc1cc(C)cc(-c2nn(C)cc2-c2cc(NC[C@H](C)O)nc(-c3cccnc3)n2)c1,IC50,[3],241 nM
COc1cc(C)cc(-c2c(-c3cc(N4CC(O)C4)nc(-c4cccnc4)n3)cnn2C)c1,IC50,[3],74.2 nM
Cc1cc(O)cc(-c2nn(C)cc2-c2cc(NCCCCO)nc(-c3cccnc3)n2)c1,IC50,[3],133 nM
COc1cc(C)cc(-c2c(-c3cc(NC[C@H](C)O)nc(-c4cccnc4)n3)cnn2C)c1,IC50,[3],283 nM
Cc1cc(O)cc(-c2c(-c3cc(NCCCCO)nc(-c4cccnc4)n3)cnn2C)c1,IC50,[3],25.4 nM
COc1cc(C)cc(-c2c(-c3cc(NCCCCO)nc(-c4cccnc4)n3)cnn2C)c1,IC50,[3],138 nM
COc1cc(C)cc(-c2nn(C)cc2-c2cc(N3CCOCC3)nc(-c3cccnc3)n2)c1,IC50,[3],59.1 nM
Cc1cc(O)cc(-c2nn(C)cc2-c2cc(N3CC(O)C3)nc(-c3cccnc3)n2)c1,IC50,[3],86.5 nM
